Columns and labels:
Format in all cases: functional
P388 = assay: Growth inhibition of mouse P388 cells assessed as zone units at 50 ug/disk by disk diffusion agar colony formation assay
HL-60(TB) = assay: Growth inhibition of human HL-60(TB) cells
CCRF-CEM = assay: Growth inhibition of human CCRF-CEM cells
SF-268 = assay: Growth inhibition of human SF268 cells
PO3 = assay: Growth inhibition of mouse PO3 cells assessed as zone units at 50 ug/disk by disk diffusion agar colony formation assay
K562 = assay: Growth inhibition of human K562 cells
[1] = Growth inhibition of mouse M17/ADR cells assessed as zone units at 50 ug/disk by disk diffusion agar colony formation assay
MOLT-4 = assay: Growth inhibition of human MOLT4 cells
[2] = Growth inhibition of human […] cells
SK-MEL-28 = assay: Growth inhibition of human SK-MEL-28 cells
[3] = Growth inhibition of human Hs 578T cells
MDA-MB-435 = assay: Growth inhibition of human MDA-MB-435 cells
HOP-62 = assay: Growth inhibition of human HOP62 cells
IGROV-1 = assay: Growth inhibition of human IGROV1 cells
A498 = assay: Growth inhibition of human A498 cells
HT-29 = assay: Growth inhibition of human HT-29 cells
NCI-H522 = assay: Growth inhibition of human NCI-H522 cells
EKVX = assay: Growth inhibition of human EKVX cells
SR = assay: Growth inhibition of human SR cells
HOP-92 = assay: Growth inhibition of human HOP92 cells
OVCAR-8 = assay: Growth inhibition of human OVCAR8 cells
MDA-MB-231 = assay: Growth inhibition of human MDA-MB-231 cells
KM12 = assay: Growth inhibition of human KM12 cells
SK-MEL-2 = assay: Growth inhibition of human SK-MEL-2 cells
SNB-75 = assay: Growth inhibition of human SNB75 cells
U-251 = assay: Growth inhibition of human U251 cells
OVCAR-3 = assay: Growth inhibition of human OVCAR-3 cells
[4] = Growth inhibition of human MCF7/ADR resistant cells; conditions: NCI/ADR-RES
L1210 = assay: Growth inhibition of mouse L1210 cells assessed as zone units at 50 ug/disk by disk diffusion agar colony formation assay
Malme-3M = assay: Growth inhibition of human MALME-3M cells
SF-295 = assay: Growth inhibition of human SF295 cells
UACC-257 = assay: Growth inhibition of human UACC257 cells
HCT-116 = assay: Growth inhibition of human HCT116 cells
ACHN = assay: Growth inhibition of human ACHN cells
A549 = assay: Growth inhibition of human A549 cells
NCI-H460 = assay: Growth inhibition of human NCI-H460 cells
NCI-H226 = assay: Growth inhibition of human NCI-H226 cells
T47D = assay: Growth inhibition of human T47D cells
OVCAR-5 = assay: Growth inhibition of human OVCAR5 cells
DU-145 = assay: Growth inhibition of human DU145 cells
UO-31 = assay: Growth inhibition of human UO31 cells
COLO 205 = assay: Growth inhibition of human COLO205 cells
MCF7 = assay: Growth inhibition of human MCF7 cells
UACC-62 = assay: Growth inhibition of human UACC62 cells
786-0 = assay: Growth inhibition of human 786-0 cells
SN12C = assay: Growth inhibition of human SN12C cells
OVCAR-4 = assay: Growth inhibition of human OVCAR4 cells
M14 = assay: Growth inhibition of human M14 cells
MDA-N = assay: Growth inhibition of human MDA-N cells
SW-620 = assay: Growth inhibition of human SW620 cells
[5] = Growth inhibition of human H116 cells assessed as zone units at 50 ug/disk by disk diffusion agar colony formation assay
HCC 2998 = assay: Growth inhibition of human HCC2998 cells
HCT-15 = assay: Growth inhibition of human HCT15 cells
RXF 393 = assay: Growth inhibition of human […] cells
SF-539 = assay: Growth inhibition of human SF539 cells
SK-OV-3 = assay: Growth inhibition of human SKOV3 cells
NCI-H23 = assay: Growth inhibition of human NCI-H23 cells
BT-549 = assay: Growth inhibition of human BT549 cells
NCI-H322M = assay: Growth inhibition of human NCI-H322M cells
CAKI-1 = assay: Growth inhibition of human Caki1 cells
SK-MEL-5 = assay: Growth inhibition of human SK-MEL-5 cells
PC-3 = assay: Growth inhibition of human PC3 cells
CX-1 = assay: Growth inhibition of human CX-1 cells assessed as zone units at 50 ug/disk by disk diffusion agar colony formation assay
MC-38 = assay: Growth inhibition of mouse C38 cells assessed as zone units at 50 ug/disk by disk diffusion agar colony formation assay

## CC1=C(CC/C(C)=C/CC[C@@]2(C)CC[C@@H]([C@H](C)C(=O)O)OO2)C(C)(C)CCC1 [EPIMUQUBILIN A]
P388
  Activity: 50 Zone units
HL-60(TB)
  GI50: 47800 nM
CCRF-CEM
  GI50: 61700 nM
SF-268
  GI50: > 100000 nM
PO3
  Activity: 0 Zone units
K562
  GI50: > 100000 nM
[1]
  Activity: 70 Zone units
MOLT-4
  GI50: 42600 nM
[2]
  GI50: > 100000 nM
SK-MEL-28
  GI50: > 100000 nM
[3]
  GI50: > 100000 nM
MDA-MB-435
  GI50: > 100000 nM
HOP-62
  GI50: > 100000 nM
IGROV-1
  GI50: 43600 nM
A498
  GI50: > 100000 nM
HT-29
  GI50: > 100000 nM
NCI-H522
  GI50: 13800 nM
EKVX
  GI50: > 100000 nM
SR
  GI50: > 100000 nM
HOP-92
  GI50: > 100000 nM
OVCAR-8
  GI50: > 100000 nM
MDA-MB-231
  GI50: > 100000 nM
KM12
  GI50: > 100000 nM
SK-MEL-2
  GI50: > 100000 nM
SNB-75
  GI50: > 100000 nM
U-251
  GI50: > 100000 nM
OVCAR-3
  GI50: > 100000 nM
[4]
  GI50: > 100000 nM
L1210
  Activity: 50 Zone units
Malme-3M
  GI50: > 100000 nM

## C=C1CCCC(C)(C)C1CC[C@]1(C)CC[C@@H]([C@@H](C)C(=O)O)OO1 (some centres not stated) [EPINUAPAPUIN B]
SF-295
  GI50: > 10000 nM
UACC-257
  GI50: > 10000 nM
P388
  Activity: 160 Zone units
HCT-116
  GI50: > 10000 nM
ACHN
  GI50: > 10000 nM
HL-60(TB)
  GI50: 2060 nM
CCRF-CEM
  GI50: 2270 nM
A549
  GI50: > 10000 nM
NCI-H460
  GI50: > 10000 nM
NCI-H226
  GI50: > 10000 nM
PO3
  Activity: 60 Zone units
T47D
  GI50: > 10000 nM
OVCAR-5
  GI50: > 10000 nM
DU-145
  GI50: > 10000 nM
[1]
  Activity: 210 Zone units
MOLT-4
  GI50: 7430 nM
[2]
  GI50: > 10000 nM
UO-31
  GI50: > 10000 nM
COLO 205
  GI50: > 10000 nM
SK-MEL-28
  GI50: > 10000 nM
[3]
  GI50: > 10000 nM
MDA-MB-435
  GI50: > 10000 nM
MCF7
  GI50: > 10000 nM
HOP-62
  GI50: 9540 nM
IGROV-1
  GI50: 1730 nM
UACC-62
  GI50: > 10000 nM
A498
  GI50: > 10000 nM
HT-29
  GI50: > 10000 nM
786-0
  GI50: > 10000 nM
SN12C
  GI50: > 10000 nM
OVCAR-4
  GI50: > 10000 nM
NCI-H522
  GI50: 2060 nM
M14
  GI50: > 10000 nM
MDA-N
  GI50: > 10000 nM
SW-620
  GI50: > 10000 nM
[5]
  Activity: 70 Zone units
EKVX
  GI50: > 10000 nM
SR
  GI50: 2720 nM
HOP-92
  GI50: 6630 nM
OVCAR-8
  GI50: > 10000 nM
HCC 2998
  GI50: > 10000 nM
HCT-15
  GI50: > 10000 nM
MDA-MB-231
  GI50: > 10000 nM
KM12
  GI50: 5730 nM
SK-MEL-2
  GI50: > 10000 nM
SNB-75
  GI50: > 10000 nM
RXF 393
  GI50: > 10000 nM
SF-539
  GI50: > 10000 nM
SK-OV-3
  GI50: > 10000 nM
U-251
  GI50: > 10000 nM
NCI-H23
  GI50: > 10000 nM
BT-549
  GI50: > 10000 nM
NCI-H322M
  GI50: > 10000 nM
OVCAR-3
  GI50: > 10000 nM
CAKI-1
  GI50: > 10000 nM
SK-MEL-5
  GI50: > 10000 nM
[4]
  GI50: > 10000 nM
L1210
  Activity: 160 Zone units
Malme-3M
  GI50: 3960 nM

## C=C1CCC[C@H]2[C@](C)(CC[C@]3(C)CC[C@H]([C@@H](C)C(=O)O)OO3)[C@@H](C)CC[C@]12C [SIGMOSCEPTRELLIN A]
SF-295
  GI50: 1460 nM
UACC-257
  GI50: 3680 nM
P388
  Activity: 230 Zone units
HCT-116
  GI50: 1800 nM
ACHN
  GI50: 1380 nM
HL-60(TB)
  GI50: 140 nM
CCRF-CEM
  GI50: 200 nM
A549
  GI50: 1450 nM
NCI-H460
  GI50: 1590 nM
NCI-H226
  GI50: 110 nM
T47D
  GI50: 2000 nM
OVCAR-5
  GI50: 1740 nM
[1]
  Activity: 290 Zone units
MOLT-4
  GI50: 980 nM
[2]
  GI50: 1710 nM
UO-31
  GI50: 1220 nM
COLO 205
  GI50: 2180 nM
SK-MEL-28
  GI50: 3310 nM
[3]
  GI50: 1080 nM
MDA-MB-435
  GI50: 1980 nM
MCF7
  GI50: 1780 nM
HOP-62
  GI50: 1050 nM
IGROV-1
  GI50: 120 nM
UACC-62
  GI50: 2320 nM
A498
  GI50: 1930 nM
HT-29
  GI50: 1570 nM
PC-3
  GI50: 1690 nM
786-0
  GI50: 610 nM
SN12C
  GI50: 1780 nM
OVCAR-4
  GI50: 1890 nM
NCI-H522
  GI50: 120 nM
M14
  GI50: 3290 nM
MDA-N
  GI50: 1830 nM
SW-620
  GI50: 1570 nM
EKVX
  GI50: 1170 nM
SR
  GI50: 1130 nM
HOP-92
  GI50: 290 nM
OVCAR-8
  GI50: 1570 nM
HCC 2998
  GI50: 1550 nM
HCT-15
  GI50: 1890 nM
MDA-MB-231
  GI50: 3710 nM
KM12
  GI50: 940 nM
SK-MEL-2
  GI50: 2170 nM
SNB-75
  GI50: 1080 nM
RXF 393
  GI50: 1220 nM
SF-539
  GI50: 1610 nM
SK-OV-3
  GI50: 1570 nM
U-251
  GI50: 1730 nM
CX-1
  Activity: 220 Zone units
MC-38
  Activity: 180 Zone units
NCI-H23
  GI50: 2020 nM
BT-549
  GI50: 1810 nM
NCI-H322M
  GI50: 1910 nM
OVCAR-3
  GI50: 1850 nM
CAKI-1
  GI50: 1760 nM
SK-MEL-5
  GI50: 2680 nM
L1210
  Activity: 230 Zone units
Malme-3M
  GI50: 1200 nM

— ChEMBL document CHEMBL1141727, “Isolation and cytotoxic evaluation of marine sponge-derived norterpene peroxides” (J Nat Prod, 1998)
